From US20210236391A1, “Dental Product, use of a Dental Product and methods of use of a dental product” (DR HEFF'S PRODUCTS LIMITED, priority 2015, published 2021)
“Also recorded” adds a separate entry of the source.

Tests used:
[1] = Caries lesion depth by fluorescence microscopy after in vitro pH-proteolytic cycling; set-up: species or system bovine; conditions: after treatments and pH-proteolytic cycling for 8 days
Experimental: An objective of the experimental study was to investigate the effects of mints containing bioactive agents, specifically the xylitol, ACP and eGCG, in the re-mineralization of root dentin surfaces. […] The caries lesions depths and porosity as well as mineral density (hydroxyapatite content) were estimated using fluorescence microscopy and micro-computed tomography. Extracted sound bovine incisors were freshly collected from a slaughterhouse, cleaned and stored at 4° C. in 0.1% thymol for no longer than 2 weeks. […] Half of each sample was used for fluorescence microscopy and the other half was used for micro-computed tomography. […] Samples were analyzed with a Fluorescence Microscope (DM16000 B, Leica), using TEX and DIC (differential interference contrast) channels. Fluorescence intensity line profiles obtained in TEX channel images of the pre and post-treatment lesions were analyzed in Image J Software (NIH), thereby providing mean intensity values (per pixel) for red emission channel of each image. The fluorescence intensity is directly related to the porosity of the de-mineralized dentin, where increased porosity is directly related to increased fluorescence intensity. Fluorescence data was presented as percentage difference from post-treatment and pre-treatment lesions of each specimen. […]

[2] = Rhodamine B fluorescence intensity (lesion porosity) after in vitro pH-proteolytic cycling; set-up: species or system bovine; conditions: for decrease percentage of the mean Rhodamine fluorescence (F) exhibited by caries lesions: after treatments (suspended in artificial saliva, 5 times per day for 3 minutes) and pH-proteolytic cycling for 8 days
Experimental: An objective of the experimental study was to investigate the effects of mints containing bioactive agents, specifically the xylitol, ACP and eGCG, in the re-mineralization of root dentin surfaces. […] The caries lesions depths and porosity as well as mineral density (hydroxyapatite content) were estimated using fluorescence microscopy and micro-computed tomography. Extracted sound bovine incisors were freshly collected from a slaughterhouse, cleaned and stored at 4° C. in 0.1% thymol for no longer than 2 weeks. Two root fragments (5×4×1 mm) from the cervical portion (mesial and distal) of the root were obtained from each tooth using diamond disk mounted in a cutting machine (Isomet 1000, Buehler, Lake Bluff, IL, USA). The dentin surfaces were polished using #600 and #800 abrasive paper (Carbimet, Buehler) under constant water irrigation. The entire surface of the fragments was sealed with acid-resistant nail polish, except for a 4×3 mm window on the polished dentin surface. The root fragments were placed in a demineralization solution (2.2 mM CaCl2.2H2O, 2.2 mM KH2PO4, 50 mM acetate, pH 4.6) for 96 h at 37° C. to create initial caries lesions of approximately 120 μm-deep (1). Following lesion development, the fragments were rinsed thoroughly with deionized water, and half of the specimens' windows were covered with an acid-resistant nail polish to maintain the baseline lesion. […] The concentrations were optimized to simulate the in vivo conditions in which the normal salivary flow is 0.5 mL/min (2). Thus, one third of the mints (g) were dissolved in 0.5 ml of artificial saliva and the ingredients concentrations were kept at same ratio as in the original mint formulation. […] All solutions were prepared daily prior to use. In addition to pH cycling, the overnight re-mineralization solutions had bacterial collagenase from Chlostridium Histolycum (100 μg/ml) to simulate enzymatic challenge. Each specimen was sectioned perpendicularly to the varnished area so that each section included the baseline and post-treatment lesions. Half of each sample was used for fluorescence microscopy and the other half was used for micro-computed tomography. […] The assumption of equality of variances and normal distribution of errors were verified using Levene's test. Analysis of variance (ANOVA) followed by Scheffe or Game-Howell tests were performed at α=0.05 using SPSS 20 software.

[3] = Apparent mineral density by micro-computed tomography after in vitro pH-proteolytic cycling; set-up: species or system bovine; conditions: for effect on mineral density of the caries lesion (in words): after pH-proteolytic cycling and treatments, compared to AS control; for increase percentage of the apparent mineral density (mg HA/ccm): mean values after pH-proteolytic cycling and treatments, micro-CT
Experimental: An objective of the experimental study was to investigate the effects of mints containing bioactive agents, specifically the xylitol, ACP and eGCG, in the re-mineralization of root dentin surfaces. […] The caries lesions depths and porosity as well as mineral density (hydroxyapatite content) were estimated using fluorescence microscopy and micro-computed tomography. Extracted sound bovine incisors were freshly collected from a slaughterhouse, cleaned and stored at 4° C. in 0.1% thymol for no longer than 2 weeks. Two root fragments (5×4×1 mm) from the cervical portion (mesial and distal) of the root were obtained from each tooth using diamond disk mounted in a cutting machine (Isomet 1000, Buehler, Lake Bluff, IL, USA). The dentin surfaces were polished using #600 and #800 abrasive paper (Carbimet, Buehler) under constant water irrigation. The entire surface of the fragments was sealed with acid-resistant nail polish, except for a 4×3 mm window on the polished dentin surface. The root fragments were placed in a demineralization solution (2.2 mM CaCl2.2H2O, 2.2 mM KH2PO4, 50 mM acetate, pH 4.6) for 96 h at 37° C. to create initial caries lesions of approximately 120 μm-deep (1). Following lesion development, the fragments were rinsed thoroughly with deionized water, and half of the specimens' windows were covered with an acid-resistant nail polish to maintain the baseline lesion. […] The concentrations were optimized to simulate the in vivo conditions in which the normal salivary flow is 0.5 mL/min (2). Thus, one third of the mints (g) were dissolved in 0.5 ml of artificial saliva and the ingredients concentrations were kept at same ratio as in the original mint formulation. […] All solutions were prepared daily prior to use. In addition to pH cycling, the overnight re-mineralization solutions had bacterial collagenase from Chlostridium Histolycum (100 μg/ml) to simulate enzymatic challenge. Each specimen was sectioned perpendicularly to the varnished area so that each section included the baseline and post-treatment lesions. Half of each sample was used for fluorescence microscopy and the other half was used for micro-computed tomography. Specimens (n=6 per group) were fixed in 10% neutral buffered formalin for 24 h. Specimens were held securely in a specimen holder, which were soaked with phosphate-buffered saline (PBS). […] The manufacturer's software was used to filter noise and segment the data at a threshold of 220. Tissue mineral density (based on a standard calibration phantom provided by the manufacturer) was determined (mg/cc of hydroxyapatite). […] The assumption of equality of variances and normal distribution of errors were verified using Levene's test. […]

[4] = In vitro pH-proteolytic cycling model, overall re-mineralization and tissue observations; set-up: species or system bovine
From the text: (§1) An objective of the experimental study was to investigate the effects of mints containing bioactive agents, specifically the xylitol, ACP and eGCG, in the re-mineralization of root dentin surfaces. […] The caries lesions depths and porosity as well as mineral density (hydroxyapatite content) were estimated using fluorescence microscopy and micro-computed tomography.
as §1, with “The” for “An”, “this” for “the experimental”, “agents (e.g.” for “agents, specifically the”, “eGCG)” for “eGCG,”, “micro computed” for “micro-computed”
Extracted sound bovine incisors were freshly collected from a slaughterhouse, cleaned and stored at 4° C. in 0.1% thymol for no longer than 2 weeks. Two root fragments (5×4×1 mm) from the cervical portion (mesial and distal) of the root were obtained from each tooth using diamond disk mounted in a cutting machine (Isomet 1000, Buehler, Lake Bluff, IL, USA). The dentin surfaces were polished using #600 and #800 abrasive paper (Carbimet, Buehler) under constant water irrigation. The entire surface of the fragments was sealed with acid-resistant nail polish, except for a 4×3 mm window on the polished dentin surface. […]

[5] = five xylitol lozenges spaced across the day, caries-active adults; cited from earlier work

Row | SMILES | caries lesion depth change from initial lesions (in words) [1] | decrease percentage of the mean Rhodamine fluorescence (F) exhibited by caries lesions [2] | lesion porosity / fluorescence decrease compared to AS (negative control), statistical significance ([2]; after treatments and pH-proteolytic cycling for 8 days) | effect on mineral density of the caries lesion (in words) [3] | increase percentage of the apparent mineral density (mg HA/ccm) [3] | dental tissue loss ([4]; after pH-proteolytic cycling and treatments, in artificial saliva) | caries re-mineralization (overall conclusion) ([4]; artificially induced root caries, in vitro pH-proteolytic cycling) | caries-preventive effect on root surfaces [5] | incidence of smooth-surface, occusal-surface or proximal-surface caries, xylitol vs control participants [5]
1 | O=C(O[C@@H]1Cc2c(O)cc(O)cc2O[C@@H]1c1cc(O)c(O)c(O)c1)c1cc(O)c(O)c(O)c1 [eGCG, epigallocatechin gallate] | Significant (% caries lesion depth) decrease | 85.72% | statistically significant differences; also recorded: significant decrease in lesion porosity | promotes mineral density similar to fluoride; also recorded: increased mineral density | 70.12% |  |  |  | 
2 | OC[C@@H](O)[C@H](O)[C@@H](O)CO [xylitol] |  | 34.92% |  | does not help to increase mineral density |  | dental tissue loss occurs; also recorded: Dental tissue loss was mainly observed | no significant effect | appears to have a caries-preventive effect on root surfaces | no statistically significant difference
3 | [F-].[Na+] [NaF, sodium fluoride] |  | 5.60% |  |  | 165.53% |  |  |  | 
